29 compounds from patent US8987314B2, “Amide, urea or sulfone amide linked benzothiazole inhibitors of endothelial lipase” (Bristol-Myers Squibb Company, priority 2012, dated 2015) can be followed below.

Sequence of Endothelial lipase (EL) (Q9Y5X9 21-500): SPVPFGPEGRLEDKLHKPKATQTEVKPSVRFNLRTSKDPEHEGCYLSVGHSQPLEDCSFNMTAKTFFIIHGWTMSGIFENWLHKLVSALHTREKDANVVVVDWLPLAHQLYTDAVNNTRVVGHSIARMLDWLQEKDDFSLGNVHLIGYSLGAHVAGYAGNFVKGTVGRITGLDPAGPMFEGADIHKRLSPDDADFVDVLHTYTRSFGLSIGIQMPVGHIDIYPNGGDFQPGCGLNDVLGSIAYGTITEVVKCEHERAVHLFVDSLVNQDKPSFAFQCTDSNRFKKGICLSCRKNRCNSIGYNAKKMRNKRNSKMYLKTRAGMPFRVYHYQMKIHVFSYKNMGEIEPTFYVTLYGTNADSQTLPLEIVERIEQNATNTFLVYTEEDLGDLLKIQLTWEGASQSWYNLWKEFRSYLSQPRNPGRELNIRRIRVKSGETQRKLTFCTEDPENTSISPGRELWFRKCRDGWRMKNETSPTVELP

In the assay the target is Endothelial lipase (EL) (Homo sapiens (Human), UniProt Q9Y5X9). Description: EL assay: endothelial lipase activity with fluorescent substrate A10070 in DMPG vesicles. The format is biochemical. The note with it: EL from conditioned media of HT-1080 cells; 30 min incubation with compound at 37° C.; A10070/DMPG vesicles. How it is done:
Endothelial lipase (EL) and hepatic lipase (HL) activities were measured using a fluorescent substrate, A10070, (Invitrogen, CA) doped into an artificial vesicle containing DMPG (Avanti Polar Lipids) as the excipient. Vesicles were prepared by combining 571 μL of 29 mM DMPG in a 1:1 mixture of MeOH and CHCl3 with 2000 μL of 1 mM A10070 in a 1:1 mixture of MeOH and CHCl3. The mixture was dried under nitrogen in multiple vials then resuspended in 20 mL total volume of 50 mM HEPES pH 8.0 buffer containing 50 mM NaCl and 0.2 mM EDTA. The sample was allowed to sit at room temperature for 15 min and then was sonicated 3×4 mins on ice with a Branson Sonicator using duty cycle 1. This preparation provides vesicles with a mole fraction of 0.11 for the FRET substrate.
The enzymatic assay was measured using 384-well white Optiplates. Each well contained 20 μL of assay buffer (50 mM HEPES pH 8.0, 50 mM NaCl and 1 mM CaCl2) and 0.25 μL of a DMSO solution containing a compound of interest. EL or HL (10 μL) was added and allowed to incubate with the compound for 30 min at 37° C. The source of EL was conditioned media obtained from HT-1080 cells that were transformed using RAGE technology (Athersys) to overexpress endogenous EL, and HL was partially purified from conditioned media obtained from COS cells overexpressing HL. The reaction was started by the addition of 10 μL of a 1:10 dilution of vesicles. The final total reaction volume was […]. The reaction rates were measured on a Gemini plate reader with an excitation wavelength of 490 nm and an emission wavelength of 530 nm. Readings were taken over a period of 60 minutes, and the slope between 300 and 900 secs of the readout was used to calculate the rate of the reaction.
Broadly, the IC50 is the concentration that gives 50% inhibition. `NS(=O)(=O)CCNC(=O)C(NC(=O)c1ccc(C(F)(F)F)cc1)c1nc2ccc(-c3ccc(F)nc3)cc2s1` (centres unmarked) [Example A1, N-(1-(6-(6-Fluoropyridin-3-yl)benzo[d]thiazol-2-yl)-2-oxo-2-((2-sulfamoylethyl)amino)ethyl)-4-(trifluoromethyl)benzamide]: the IC50 amounted to 35 nM. As for `CCCC(=O)NC(C(=O)NCCS(N)(=O)=O)c1nc2ccc(-c3ccc(F)nc3)cc2s1` (centres unmarked) [Example A3, N-(1-(6-(6-fluoropyridin-3-yl)benzo[d]thiazol-2-yl)-2-oxo-2-((2-sulfamoylethyl)amino)ethyl)butyramide], the IC50 is < 10 nM.

`NS(=O)(=O)CCNC(=O)C(NC(=O)C(F)F)c1nc2ccc(-c3ccc(F)nc3)cc2s1` (centres unmarked) [Example A4, 2-(2,2-difluoroacetamido)-2-(6-(6-fluoropyridin-3-yl)benzo[d]thiazol-2-yl)-N-(2-sulfamoylethyl)acetamide]: the IC50 is < 10 nM. Take `CCCC(=O)NC(C(=O)NCCS(N)(=O)=O)c1nc2ccc(-c3ccc(C(=O)N4CCOCC4)cc3)cc2s1` (centres unmarked) [Example A5, N-(1-(6-(4-(morpholine-4-carbonyl)phenyl)benzo[d]thiazol-2-yl)-2-oxo-2-((2-sulfamoylethyl)amino)ethyl)butyramide]: the IC50 was < 10 nM. Consider `NS(=O)(=O)CCNC(=O)C(NC(=O)c1cccnc1)c1nc2ccc(-c3ccc(C(=O)N4CCOCC4)cc3)cc2s1` (centres unmarked) [Example A6, N-(1-(6-(4-(morpholine-4-carbonyl)phenyl)benzo[d]thiazol-2-yl)-2-oxo-2-((2-sulfamoylethyl)amino)ethyl)nicotinamide], for which the IC50 is < 10 nM.

With `NS(=O)(=O)CCNC(=O)C(NC(=O)c1ccc(C(F)(F)F)cc1)c1nc2ccc(-c3ccc(C(=O)N4CCOCC4)cc3)cc2s1` (centres unmarked) [Example A7], the IC50 was < 10 nM. In the case of `CC(=O)NC(C(=O)NCc1nnc(C)o1)c1nc2ccc(-c3ccc(F)cc3)cc2s1` (centres unmarked) [Example A8, 2-acetamido-2-(6-(4-fluorophenyl)benzo[d]thiazol-2-yl)-N-((5-methyl-1,3,4-oxadiazol-2-yl)methyl)acetamide], the IC50 is < 10 nM.

In the case of `Cc1nnc(CNC(=O)C(NC(=O)NCc2ccccc2)c2nc3ccc(-c4ccc(F)cc4)cc3s2)o1` (centres unmarked) [Example A9, 2-(3-Benzylureido)-2-(6-(4-fluorophenyl)benzo[d]thiazol-2-yl)-N-((5-methyl-1,3,4-oxadiazol-2-yl)methyl)acetamide], the IC50 came to 50 nM. Regarding `CS(=O)(=O)C(C(=O)NCCS(N)(=O)=O)c1nc2ccc(-c3ccccc3)cc2s1` (centres unmarked) [Example B1, 2-(Methylsulfonyl)-2-(6-phenylbenzo[d]thiazol-2-yl)-N-(2-sulfamoylethyl)acetamide], the IC50 was < 10 nM. As for `C=CCS(=O)(=O)C(C(=O)NCCS(N)(=O)=O)c1nc2ccc(-c3ccccc3)cc2s1` (centres unmarked) [Example B2, 2-(Allylsulfonyl)-2-(6-phenylbenzo[d]thiazol-2-yl)-N-(2-sulfamoylethyl)acetamide], the IC50 was < 10 nM.

As to `CS(=O)(=O)C(C(=O)NCCS(N)(=O)=O)c1nc2ccc(-c3ccc(F)nc3)cc2s1` (centres unmarked) [Example B3, 2-(6-(6-fluoro-3-pyridinyl)-1,3-benzothiazol-2-yl)-2-(methylsulfonyl)-N-(2-sulfamoylethyl)acetamide], the IC50 was < 10 nM. For the compound `Cc1noc(C)c1-c1ccc2nc(C(C(=O)NCCS(N)(=O)=O)S(C)(=O)=O)sc2c1` (centres unmarked) [Example B4, 2-(6-(3,5-dimethyl-4-isoxazolyl)-1,3-benzothiazol-2-yl)-2-(methylsulfonyl)-N-(2-sulfamoylethyl)acetamide], the IC50 stood at 13 nM. With `NS(=O)(=O)CCNC(=O)C(c1nc2ccc(-c3ccc(F)nc3)cc2s1)S(=O)(=O)Cc1ccccc1` (centres unmarked) [Example B5, 2-(benzylsulfonyl)-2-(6-(6-fluoro-3-pyridinyl)-1,3-benzothiazol-2-yl)-N-(2-sulfamoylethyl)acetamide], the IC50 was < 10 nM. For the compound `NS(=O)(=O)CCNC(=O)C(c1nc2ccc(-c3ccc(F)nc3)cc2s1)S(=O)(=O)Cc1ccc(C(F)(F)F)cc1` (centres unmarked) [Example B6, 2-(6-(6-fluoro-3-pyridinyl)-1,3-benzothiazol-2-yl)-N-(2-sulfamoylethyl)-2-((4-(trifluoromethyl)benzyl)sulfonyl)acetamide], the concentration for half-maximal inhibition (IC50) is < 10 nM. For `NS(=O)(=O)CCNC(=O)C(c1nc2ccc(-c3ccc(F)nc3)cc2s1)S(=O)(=O)CCC(F)(F)F` (centres unmarked) [Example B7, 2-(6-(6-fluoropyridin-3-yl)benzo[d]thiazol-2-yl)-N-(2-sulfamoylethyl)-2-((3,3,3-trifluoropropyl)sulfonyl)acetamide], the IC50 is < 10 nM. As for `CS(=O)(=O)C(C(=O)NCCS(N)(=O)=O)c1nc2ccc(-c3ccnc(F)c3)cc2s1` (centres unmarked) [Example B8, 2-(6-(2-fluoro-4-pyridinyl)-1,3-benzothiazol-2-yl)-2-(methylsulfonyl)-N-(2-sulfamoylethyl)acetamide], the IC50 is < 10 nM. The result for `CS(=O)(=O)C(C(=O)NCCS(N)(=O)=O)c1nc2ccc(-c3ccnc(Cl)c3)cc2s1` (centres unmarked) [Example B9, 2-(6-(2-chloro-4-pyridinyl)-1,3-benzothiazol-2-yl)-2-(methylsulfonyl)-N-(2-sulfamoylethyl)acetamide] reads < 10 nM; that for `CS(=O)(=O)C(C(=O)NCCS(N)(=O)=O)c1nc2ccc(-c3ccc(Cl)nc3)cc2s1` (centres unmarked) [Example B10, 2-(6-(6-chloro-3-pyridinyl)-1,3-benzothiazol-2-yl)-2-(methylsulfonyl)-N-(2-sulfamoylethyl)acetamide], < 10 nM. Consider `CC(C)S(=O)(=O)C(C(=O)NCCS(N)(=O)=O)c1nc2ccc(-c3ccc(F)nc3)cc2s1` (centres unmarked) [Example B12, 2-(6-(6-fluoro-3-pyridinyl)-1,3-benzothiazol-2-yl)-2-(isopropylsulfonyl)-N-(2-sulfamoylethyl)acetamide], for which the IC50 is < 10 nM. As for `CS(=O)(=O)C(C(=O)NCCS(N)(=O)=O)c1nc2ccc(-c3ccc(CN4CCOCC4)cc3)cc2s1` (centres unmarked) [Example B13, 2-(methylsulfonyl)-2-(6-(4-(4-morpholinylmethyl)phenyl)-1,3-benzothiazol-2-yl)-N-(2-sulfamoylethyl)acetamide], the IC50 is < 10 nM. The value for `C=CCS(=O)(=O)C(C(=O)NCCS(N)(=O)=O)c1nc2ccc(-c3ccc(CN4CCOCC4)cc3)cc2s1` (centres unmarked) [Example B14, 2-(allylsulfonyl)-2-(6-(4-(4-morpholinylmethyl)phenyl)-1,3-benzothiazol-2-yl)-N-(2-sulfamoylethyl)acetamide] was < 10 nM; that for `CCCS(=O)(=O)C(C(=O)NCCS(N)(=O)=O)c1nc2ccc(-c3ccnc(F)c3)cc2s1` (centres unmarked) [Example B15, 2-(6-(2-fluoro-4-pyridinyl)-1,3-benzothiazol-2-yl)-2-(propylsulfonyl)-N-(2-sulfamoylethyl)acetamide] was < 10 nM.

Turning to `CC(=O)Nc1ccc(-c2ccc3nc(C(C(=O)NCCS(N)(=O)=O)S(C)(=O)=O)sc3c2)cc1` (centres unmarked) [Example B16, 2-(6-(4-acetamidophenyl)-1,3-benzothiazol-2-yl)-2-(methylsulfonyl)-N-(2-sulfamoylethyl)acetamide], the IC50 was determined as 40 nM. The value for `CN(C)S(=O)(=O)c1ccc(-c2ccc3nc(C(C(=O)NCCS(N)(=O)=O)S(C)(=O)=O)sc3c2)cc1` (centres unmarked) [Example B17, 2-(6-(4-(dimethylsulfamoyl)phenyl)-1,3-benzothiazol-2-yl)-2-(methylsulfonyl)-N-(2-sulfamoylethyl)acetamide] was < 10 nM; that for `CNc1ccc(-c2ccc3nc(C(C(=O)NCCS(N)(=O)=O)S(C)(=O)=O)sc3c2)cc1` (centres unmarked) [Example B18, 2-(6-(4-(methylamino)phenyl)-1,3-benzothiazol-2-yl)-2-(methylsulfonyl)-N-(2-sulfamoylethyl)acetamide] was 13 nM. For the compound `COc1ccc(-c2ccc3nc(C(C(=O)NCCS(N)(=O)=O)S(C)(=O)=O)sc3c2)cn1` (centres unmarked) [Example B19, 2-(6-(6-methoxy-3-pyridinyl)-1,3-benzothiazol-2-yl)-2-(methylsulfonyl)-N-(2-sulfamoylethyl)acetamide], the IC50 was < 10 nM. On to `CS(=O)(=O)C(C(=O)NCCS(N)(=O)=O)c1nc2ccc(-c3ccc(N4CCOCC4)cc3)cc2s1` (centres unmarked) [Example B20, 2-(methylsulfonyl)-2-(6-(4-(4-morpholinyl)phenyl)-1,3-benzothiazol-2-yl)-N-(2-sulfamoylethyl)acetamide], for which the IC50 is < 10 nM. The result for `CS(=O)(=O)C(C(=O)NCCS(N)(=O)=O)c1nc2ccc(-c3ccc(-n4cccn4)cc3)cc2s1` (centres unmarked) [Example B21, 2-(methylsulfonyl)-2-(6-(4-(1H-pyrazol-1-yl)phenyl)-1,3-benzothiazol-2-yl)-N-(2-sulfamoylethyl)acetamide] reads < 10 nM. The result for `COC(=O)Nc1ccc(-c2ccc3nc(C(C(=O)NCCS(N)(=O)=O)S(C)(=O)=O)sc3c2)cc1` (centres unmarked) [Example B22, methyl (4-(2-(1-(methylsulfonyl)-2-oxo-2-((2-sulfamoylethyl)amino)ethyl)-1,3-benzothiazol-6-yl)phenyl)carbamate] reads < 10 nM.
